According to ChEMBL document CHEMBL4311972, “Discovery of a benzothiophene-flavonol halting miltefosine and antimonial drug resistance in Leishmania parasites through the application of medicinal chemistry, screening and genomics” (Eur J Med Chem, 2019):
The source made the active and inactive calls. No cut-off for these calls is given here.

Experiments:
786-0 = experiment: Mitochondrial toxicity in human 786-0 cells at 10 uM incubated with compound for 6 hrs followed by incubation with MitoTracker Red chloromethyl-X-rosamine dye for 45 mins by imaging analysis; format: cell-based; settings: 786-0, 6 h
Leishmania infantum = experiment: Antileishmanial activity against luciferase expressing intracellular amastigote stage of Leishmania infantum infected in human THP1 cells assessed as parasite growth inhibition measured after 48 to 72 hrs by steady-glo luciferase assay; format: functional, organism-based; settings: Leishmania infantum, THP-1; read-out: EC50
Trypanosoma cruzi [1] = experiment: Antitrypanosomal activity against intracellular amastigote stage of Trypanosoma cruzi Y infected in human U2OS cells measured after 96 hrs by DRAQ5 dye based microscopic analysis; format: functional, organism-based
[2] = Toxicity in Syrian hamster infected with Leishmania infantum BCN150 promastigotes assessed as dizziness at 20 mg/kg/day, po for 10 days measured daily; format: organism-based, Mesocricetus auratus; settings: in vivo, 240 h
Trypanosoma cruzi [3] = experiment: Antitrypanosomal activity against intracellular amastigote stage of Trypanosoma cruzi CL Brener infected in human U2OS cells measured after 96 hrs by DRAQ5 dye based microscopic analysis; format: functional, organism-based
[4] = Cytotoxicity against human A549 cells assessed as cell growth at […] incubated for 48 hrs by Celltiter-Glo luminescence assay relative to control; format: cell-based; design: dose or concentration left out as unconfirmed; settings: read-out: Activity
Trypanosoma cruzi [5] = experiment: Antitrypanosomal activity against intracellular amastigote stage of Trypanosoma cruzi 92.80 cl2 infected in human U2OS cells measured after 96 hrs by DRAQ5 dye based microscopic analysis; format: functional, organism-based
Leishmania donovani [6] = experiment: Antileishmanial activity against promastigote form of Leishmania donovani assessed as parasite growth inhibition; format: functional, organism-based
CYP3A4 = CYP3A4 (Homo sapiens, UniProt P08684); experiment: Inhibition of human microsomal CYP3A4 expressed in baculovirus infected insect cells at 10 uM using luciferin-IPA as substrate preincubated with enzyme/substrate mixture for 30 mins followed by further incubation with NADPH for 30 mins by CYP450 luciferase Glo assay relative to control; format: ADME; settings: probe luciferin-IPA
Chain of CYP3A4 (P08684 whole entry): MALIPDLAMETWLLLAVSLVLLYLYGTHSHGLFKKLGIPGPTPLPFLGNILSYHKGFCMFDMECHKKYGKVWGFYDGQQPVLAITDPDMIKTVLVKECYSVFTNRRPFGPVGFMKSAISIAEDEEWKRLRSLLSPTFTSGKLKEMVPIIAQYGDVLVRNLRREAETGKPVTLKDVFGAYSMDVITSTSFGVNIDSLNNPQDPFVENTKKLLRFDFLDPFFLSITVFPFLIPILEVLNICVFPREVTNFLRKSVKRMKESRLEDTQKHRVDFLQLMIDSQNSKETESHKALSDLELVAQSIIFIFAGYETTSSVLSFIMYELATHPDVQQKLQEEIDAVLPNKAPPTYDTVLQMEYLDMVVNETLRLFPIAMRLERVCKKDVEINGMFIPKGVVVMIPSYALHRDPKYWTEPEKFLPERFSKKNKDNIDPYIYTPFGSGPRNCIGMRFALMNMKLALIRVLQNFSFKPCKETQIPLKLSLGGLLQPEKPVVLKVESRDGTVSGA

Trypanosoma cruzi [7] = experiment: Antitrypanosomal activity against Trypanosoma cruzi strain Y trypomastigotes infected in human HG39 cells by TaqMan probe based RT-PCR analysis; format: functional, organism-based
CYP1A2 = biological target: T1, CYP1A2 (Homo sapiens, UniProt P05177); experiment: Inhibition of human microsomal CYP1A2 expressed in baculovirus infected insect cells at 10 uM using luciferin-1A2 as substrate preincubated with enzyme/substrate mixture for 30 mins followed by further incubation with NADPH for 30 mins by CYP450 luciferase Glo assay relative to control; format: ADME; settings: probe luciferin-1A2
T1 sequence (P05177 whole entry): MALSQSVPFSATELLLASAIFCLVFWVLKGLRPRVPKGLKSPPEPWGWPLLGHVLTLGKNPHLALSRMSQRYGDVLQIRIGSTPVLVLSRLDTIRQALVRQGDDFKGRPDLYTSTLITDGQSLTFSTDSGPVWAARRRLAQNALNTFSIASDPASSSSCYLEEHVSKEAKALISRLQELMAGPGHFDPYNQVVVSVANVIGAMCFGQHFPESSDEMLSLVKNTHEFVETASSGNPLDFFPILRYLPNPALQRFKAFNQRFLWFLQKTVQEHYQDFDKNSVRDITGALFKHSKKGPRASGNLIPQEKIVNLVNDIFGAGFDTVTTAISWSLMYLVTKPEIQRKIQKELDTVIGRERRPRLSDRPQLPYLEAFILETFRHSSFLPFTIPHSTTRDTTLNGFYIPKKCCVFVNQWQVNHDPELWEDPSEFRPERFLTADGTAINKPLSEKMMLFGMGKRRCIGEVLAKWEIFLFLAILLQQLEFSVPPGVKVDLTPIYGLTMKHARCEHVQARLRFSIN

Leishmania major = experiment: Antileishmanial activity against promastigote form of Leishmania major assessed as parasite growth inhibition; format: functional, organism-based
Trypanosoma brucei = experiment: Antitrypanosomal activity against Trypanosoma brucei bloodstream form assessed as parasite growth inhibition incubated for 72 hrs by resazurin dye based assay; format: functional, organism-based; settings: Trypanosoma brucei, 72 h; read-out: EC50
CYP2C19 = CYP2C19 (Homo sapiens, UniProt P33261); experiment: Inhibition of human microsomal CYP2C19 expressed in baculovirus infected insect cells at 10 uM using luciferin-H EGE as substrate preincubated with enzyme/substrate mixture for 30 mins followed by further incubation with NADPH for 30 mins by CYP450 luciferase Glo assay relative to control; format: ADME; settings: probe luciferin-H EGE
Chain of CYP2C19 (P33261 whole entry): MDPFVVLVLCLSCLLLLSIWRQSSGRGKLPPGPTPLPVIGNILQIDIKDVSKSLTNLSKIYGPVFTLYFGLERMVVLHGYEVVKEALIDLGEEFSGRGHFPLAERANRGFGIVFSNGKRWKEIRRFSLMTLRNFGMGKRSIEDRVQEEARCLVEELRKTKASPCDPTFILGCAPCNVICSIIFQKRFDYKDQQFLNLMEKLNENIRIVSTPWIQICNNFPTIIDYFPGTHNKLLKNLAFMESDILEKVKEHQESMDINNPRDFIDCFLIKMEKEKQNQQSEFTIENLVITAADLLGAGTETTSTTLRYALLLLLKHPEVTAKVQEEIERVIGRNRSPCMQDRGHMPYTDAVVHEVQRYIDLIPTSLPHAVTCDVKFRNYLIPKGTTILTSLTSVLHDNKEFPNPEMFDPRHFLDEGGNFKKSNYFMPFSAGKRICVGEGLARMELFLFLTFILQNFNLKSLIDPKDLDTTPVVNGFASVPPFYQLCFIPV

[8] = Thermodynamic solubility of the compound in water at >50 uM; format: physicochemical; settings: buffer
Leishmania donovani [9] = experiment: Antileishmanial activity against Leishmania donovani BPK091 promastigotes transfected with Leishmania donovani BPK190 genomic cosmid DNA assessed as parasite growth at IC50 concentration incubated with compound for 3 days under selective pressure and selection cycle repeated 10 times and measured at 37 days of selection relative to control; format: functional
CYP2D6 = CYP2D6 (Homo sapiens, UniProt P10635); experiment: Inhibition of human microsomal CYP2D6 expressed in baculovirus infected insect cells at 10 uM using luciferin-ME as substrate preincubated with enzyme/substrate mixture for 30 mins followed by further incubation with NADPH for 30 mins by CYP450 luciferase Glo assay relative to control; format: ADME; settings: probe luciferin-ME
Chain of CYP2D6 (P10635 whole entry): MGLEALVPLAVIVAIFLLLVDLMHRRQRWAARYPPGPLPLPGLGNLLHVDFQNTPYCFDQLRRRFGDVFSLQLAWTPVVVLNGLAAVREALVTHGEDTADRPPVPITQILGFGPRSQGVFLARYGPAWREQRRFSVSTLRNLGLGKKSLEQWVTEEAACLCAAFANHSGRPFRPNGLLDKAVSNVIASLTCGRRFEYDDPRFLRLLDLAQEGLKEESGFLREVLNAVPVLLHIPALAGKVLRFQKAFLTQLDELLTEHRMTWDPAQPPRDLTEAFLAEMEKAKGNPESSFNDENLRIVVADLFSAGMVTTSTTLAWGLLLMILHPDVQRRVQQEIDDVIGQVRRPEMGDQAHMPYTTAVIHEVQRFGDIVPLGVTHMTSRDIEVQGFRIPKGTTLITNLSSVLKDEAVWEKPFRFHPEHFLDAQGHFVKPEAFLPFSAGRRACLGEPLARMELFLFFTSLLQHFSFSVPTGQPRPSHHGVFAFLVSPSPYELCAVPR

Trypanosoma cruzi [10] = experiment: Antitrypanosomal activity against intracellular amastigote stage of Trypanosoma cruzi ARMA 13 cl1 infected in human U2OS cells measured after 96 hrs by DRAQ5 dye based microscopic analysis; format: functional, organism-based
hERG (KCNH2) = hERG (KCNH2) (Homo sapiens, UniProt Q12809); experiment: Inhibition of human ERG at 10 uM incubated for 2 hrs by fluorescence polarization assay relative to control
Chain of hERG (KCNH2) (Q12809 whole entry): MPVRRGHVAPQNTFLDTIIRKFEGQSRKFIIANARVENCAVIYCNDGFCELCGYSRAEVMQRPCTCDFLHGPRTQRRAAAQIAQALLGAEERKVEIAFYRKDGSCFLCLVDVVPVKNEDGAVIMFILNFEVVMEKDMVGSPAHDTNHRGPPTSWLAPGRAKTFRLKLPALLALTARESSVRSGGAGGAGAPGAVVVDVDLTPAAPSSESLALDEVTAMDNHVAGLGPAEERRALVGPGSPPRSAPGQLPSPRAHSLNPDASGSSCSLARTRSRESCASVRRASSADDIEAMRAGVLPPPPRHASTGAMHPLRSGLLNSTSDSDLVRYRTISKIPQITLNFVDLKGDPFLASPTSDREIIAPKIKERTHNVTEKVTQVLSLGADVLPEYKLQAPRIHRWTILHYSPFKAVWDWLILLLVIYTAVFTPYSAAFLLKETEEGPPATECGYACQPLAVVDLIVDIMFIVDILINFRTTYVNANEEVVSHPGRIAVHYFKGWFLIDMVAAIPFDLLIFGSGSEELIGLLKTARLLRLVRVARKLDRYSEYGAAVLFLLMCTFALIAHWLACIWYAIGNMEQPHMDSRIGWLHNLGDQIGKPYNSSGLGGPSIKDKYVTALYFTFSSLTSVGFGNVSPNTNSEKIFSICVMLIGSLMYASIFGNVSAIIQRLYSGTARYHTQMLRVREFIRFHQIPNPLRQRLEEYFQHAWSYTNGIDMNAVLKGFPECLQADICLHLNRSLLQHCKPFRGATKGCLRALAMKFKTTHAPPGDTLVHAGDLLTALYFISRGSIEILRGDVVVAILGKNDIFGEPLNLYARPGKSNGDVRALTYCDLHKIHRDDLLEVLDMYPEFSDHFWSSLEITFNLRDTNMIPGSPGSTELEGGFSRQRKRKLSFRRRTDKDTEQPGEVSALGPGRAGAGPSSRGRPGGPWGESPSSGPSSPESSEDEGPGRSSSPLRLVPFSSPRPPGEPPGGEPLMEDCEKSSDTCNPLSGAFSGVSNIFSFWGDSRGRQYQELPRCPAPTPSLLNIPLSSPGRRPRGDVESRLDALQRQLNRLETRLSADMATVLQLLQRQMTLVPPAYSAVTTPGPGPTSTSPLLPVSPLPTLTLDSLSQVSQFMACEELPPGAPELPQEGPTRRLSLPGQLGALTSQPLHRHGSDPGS

Trypanosoma cruzi [11] = experiment: Antitrypanosomal activity against intracellular amastigote stage of Trypanosoma cruzi Silvio X10/1 infected in human U2OS cells measured after 96 hrs by DRAQ5 dye based microscopic analysis; format: functional, organism-based
[12] = Tmax in BALB/c mouse at 20 mg/kg, po measured upto 72 hrs by snapshot method; format: ADME, organism-based; settings: in vivo
[13] = Toxicity in Syrian hamster infected with Leishmania infantum BCN150 promastigotes assessed as spleen lesions at 40 mg/kg/day, po for 10 days formulated with 30 to 50% v/v cyclodextrin measured under necropsy; format: organism-based, Mesocricetus auratus; settings: in vivo, 240 h
WI-38 = experiment: Cytostatic activity against human WI38 cells assessed as reduction in cell growth incubated for 48 hrs by Celltiter-Glo luminescence assay; format: cell-based; settings: wi-38, 48 h
[14] = Toxicity in Syrian hamster infected with Leishmania infantum BCN150 promastigotes assessed as spleen weight at 40 mg/kg/day, po for 10 days formulated with 50% v/v cyclodextrin (reference value: 0.191 +/- 0.061 g); format: organism-based, Mesocricetus auratus; settings: in vivo, 240 h
[15] = Binding affinity to pepsin in porcine gastric mucosa in phosphate buffer assessed as increase in emission intensity at 530 nm at 5 uM measured at pH 8 by fluorescence emission spectrum analysis; format: ADME, Sus scrofa; settings: pig
[16] = Binding affinity to trypsin in bovine pancreas in phosphate buffer assessed as increase in emission intensity at 530 nm at 5 uM measured at pH 8 by fluorescence emission spectrum analysis; format: ADME, Bos taurus; settings: cattle
Leishmania donovani [17] = experiment: Antileishmanial activity against antimony resistant Leishmania donovani BPK190 promastigotes infected in C57BL/6 mouse bone marrow-derived macrophages assessed as reduction in parasite load at 5 uM treated with compound at 24 hrs post-infection measured after 72 hrs post infection by q-PCR analysis relative to control; format: functional
Albumin = Albumin (Bos taurus, UniProt P02769); experiment: Binding affinity to bovine serum albumin in phosphate buffer assessed as decrease in emission intensity at 450 nm at 5 uM measured at pH 8 by fluorescence emission spectrum analysis; format: ADME; settings: cattle, isolated protein
Chain of Albumin (P02769 whole entry): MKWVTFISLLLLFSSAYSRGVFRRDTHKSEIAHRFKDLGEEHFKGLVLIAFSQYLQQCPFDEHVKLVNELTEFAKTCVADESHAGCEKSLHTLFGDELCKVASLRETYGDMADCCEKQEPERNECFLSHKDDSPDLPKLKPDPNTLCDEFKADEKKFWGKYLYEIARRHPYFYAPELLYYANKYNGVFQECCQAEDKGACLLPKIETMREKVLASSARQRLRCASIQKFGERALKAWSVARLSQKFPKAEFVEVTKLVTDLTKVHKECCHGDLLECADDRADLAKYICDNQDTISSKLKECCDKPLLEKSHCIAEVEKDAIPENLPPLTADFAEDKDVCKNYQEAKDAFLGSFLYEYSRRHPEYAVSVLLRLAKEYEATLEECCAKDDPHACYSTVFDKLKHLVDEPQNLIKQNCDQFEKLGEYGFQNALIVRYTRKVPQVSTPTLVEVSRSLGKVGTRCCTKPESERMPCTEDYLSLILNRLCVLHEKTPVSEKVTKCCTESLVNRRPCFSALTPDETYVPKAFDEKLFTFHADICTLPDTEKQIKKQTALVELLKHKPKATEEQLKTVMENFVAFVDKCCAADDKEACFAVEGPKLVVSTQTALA

[18] = Half-life in BALB/c mouse at 20 mg/kg, po measured upto 72 hrs by snapshot method; format: ADME, organism-based; settings: in vivo

Q: For `CCCCCCCCCCCCCCCCOP(=O)([O-])OCC[N+](C)(C)C` [MILTEFOSINE], which Activity (786-0) is on record?
A: 3.4%

Q: What about the EC50 (Leishmania infantum) of the same molecule?
A: 2510 to 3200 nM

Q: What about the inhibition (Trypanosoma cruzi [1]) of the same molecule?
A: Active

Q: And the Activity [2]?
A: Toxic

Q: What about the inhibition (Trypanosoma cruzi [3]) of the same molecule?
A: Active

Q: And the viability at 48 h [4]?
A: 95.8%

Q: What about the inhibition (Trypanosoma cruzi [5]) of the same molecule?
A: Active

Q: And the EC50 (Leishmania donovani [6])?
A: 9000 nM

Q: And the inhibition at 0.5 h, 10 µM (CYP3A4)?
A: 8.4%

Q: What about the EC50 (Trypanosoma cruzi [7]) of the same molecule?
A: 12500 nM

Q: And the inhibition at 0.5 h, 10 µM (CYP1A2)?
A: -20%

Q: And the inhibition (Leishmania major)?
A: Active

Q: What about the EC50 (Trypanosoma brucei) of the same molecule?
A: 34000 nM

Q: What about the inhibition at 0.5 h, 10 µM (CYP2C19) of the same molecule?
A: 7.9%

Q: What about the Therm_solubility [8] of the same molecule?
A: Insoluble

Q: What about the Activity (Leishmania donovani [9]) of the same molecule?
A: >50%

Q: And the inhibition at 0.5 h, 10 µM (CYP2D6)?
A: 30.8%

Q: And the inhibition (Trypanosoma cruzi [10])?
A: Active

Q: What about the inhibition at 2 h, 10 µM (hERG (KCNH2)) of the same molecule?
A: -16.9%

Q: What about the inhibition (Trypanosoma cruzi [11]) of the same molecule?
A: Active

Q: What does the source list for `COc1ccc2oc(-c3csc4ccccc34)c(O)c(=O)c2c1`?
A: Tmax [12]: 1 h; Activity (786-0): -22.85%; EC50 (Leishmania infantum): 1880 nM; EC50 (Trypanosoma cruzi [1]): 900 nM; Activity [13]: Non-Toxic; EC50 (Trypanosoma cruzi [3]): 600 nM; viability at 48 h [4]: 3.19%; EC50 (Trypanosoma cruzi [5]; 92.80 cl2, U2OS): 700 nM; EC50 (Leishmania donovani [6]): 3400 nM; inhibition at 0.5 h, 10 µM (CYP3A4): 23.3%; EC50 (Trypanosoma cruzi [7]): 7500 nM; Activity (WI-38): Toxic; Activity [14]: 0.191 g; inhibition at 0.5 h, 10 µM (CYP1A2): 99.7%; EC50 (Leishmania major): 6700 nM; Activity [15]: Active; EC50 (Trypanosoma brucei): 800 nM; inhibition at 0.5 h, 10 µM (CYP2C19): -6.32%; Therm_solubility [8]: Insoluble; Activity (Leishmania donovani [9]): >50%; inhibition at 0.5 h, 10 µM (CYP2D6): 26.2%; Activity [16]: Active; EC50 (Trypanosoma cruzi [10]; ARMA 13 cl1, U2OS): 1200 nM; inhibition at 2 h, 10 µM (hERG (KCNH2)): 32%; inhibition at 5 µM (Leishmania donovani [17]): 78%; Activity (Albumin): Active; half-life [18]: 46.9 h; EC50 (Trypanosoma cruzi [11]; Silvio X10/1, U2OS): 300 nM
